Laboratory results published in patent US9328106B2, “Cyclic ether pyrazol-4-yl-heterocyclyl-carboxamide compounds and methods of use” (Genentech, Inc., priority 2012, dated 2016).

molecular target: PIM1 (Homo sapiens (Human), UniProt P11309); experiment: biochemical; assay type: biochemical; conditions: not given
Sequence (P11309 whole entry): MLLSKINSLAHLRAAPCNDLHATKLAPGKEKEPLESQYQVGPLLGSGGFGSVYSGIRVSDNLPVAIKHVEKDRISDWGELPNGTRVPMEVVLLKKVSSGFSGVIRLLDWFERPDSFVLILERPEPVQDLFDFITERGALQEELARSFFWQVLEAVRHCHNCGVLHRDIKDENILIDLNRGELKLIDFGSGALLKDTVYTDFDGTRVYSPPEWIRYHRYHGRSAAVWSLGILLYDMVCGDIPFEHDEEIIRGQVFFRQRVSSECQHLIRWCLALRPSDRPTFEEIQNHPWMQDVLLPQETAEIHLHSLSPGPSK

Row | SMILES | Ki
1 | [2H]C([2H])([2H])O[C@@H]1CO[C@H](c2c(NC(=O)c3nc(-c4c(F)cccc4F)sc3N)cnn2C)CC[C@H]1N [Example 174, 5-Amino-N-[5-[(2S,5R,6S)-5-amino-6-(trideuteriomethoxy)oxepan-2-yl]-1-methyl-pyrazol-4-yl]-2-(2,6-difluorophenyl)thiazole-4-carboxamide] | 135 pM

same assay, conditions: 20 pM PIM1, 1 μM FAM-peptide, 10 μM ATP, 90 minutes at room temperature; read-out: PIM1 LC3K (KI)

Row | SMILES | Ki
2 | Cn1ncc(NC(=O)c2nc(-c3ccccc3F)sc2N)c1[C@@H]1CC[C@@H](N)[C@@H](F)CO1 [Example 186, 5-Amino-N-(5-((2S,5R,6R)-5-amino-6-fluorooxepan-2-yl)-1-methyl-1H-pyrazol-4-yl)-2-(2-fluorophenyl)thiazole-4-carboxamide] | 7 pM
3 | CC(O)c1cc(F)c(-c2nc(C(=O)Nc3cnn(C)c3[C@@H]3CC[C@@H](N)[C@H](F)CO3)cs2)c(F)c1 (stereo partly drawn) [Example 294, N-(5-((2S,5R,6S)-5-amino-6-fluorooxepan-2-yl)-1-methyl-1H-pyrazol-4-yl)-2-(2,6-difluoro-4-(1-hydroxyethyl)phenyl)thiazole-4-carboxamide] | 29 pM
4 | Cn1ncc(NC(=O)c2csc(-c3c(F)cc(C4(O)CCC4)cc3F)n2)c1[C@@H]1CC[C@@H](N)[C@H](F)CO1 [Example 295, N-(5-((2S,5R,6S)-5-amino-6-fluorooxepan-2-yl)-1-methyl-1H-pyrazol-4-yl)-2-(2,6-difluoro-4-(1-hydroxycyclobutyl)phenyl)thiazole-4-carboxamide] | 27 pM
5 | Cn1ncc(NC(=O)c2nc(-c3c(F)cccc3F)sc2N)c1C1CCC(N)COC1 (stereo not drawn) [Example 147, 5-amino-N-[5-(6-aminooxepan-3-yl)-1-methyl-pyrazol-4-yl]-2-(2,6-difluorophenyl)thiazole-4-carboxamide] | 141 pM
6 | Cn1ncc(NC(=O)c2csc(-c3cnc4cccnc4c3)n2)c1[C@@H]1CC[C@@H](N)[C@H](F)CO1 [Example 399, N-[5-[(2S,5R,6S)-5-amino-6-fluoro-oxepan-2-yl]-1-methyl-pyrazol-4-yl]-2-(1,5-naphthyridin-3-yl)thiazole-4-carboxamide] | 210 pM
7 | Cn1ncc(NC(=O)c2csc(-c3cccc(C(F)(F)F)n3)n2)c1[C@@H]1CC[C@@H](N)[C@H](F)CO1 [Example 314, N-(5-((2S,5R,6S)-5-amino-6-fluorooxepan-2-yl)-1-methyl-1H-pyrazol-4-yl)-2-(6-(trifluoromethyl)pyridin-2-yl)thiazole-4-carboxamide] | 2080 pM
8 | CO[C@H]1CO[C@H](c2c(NC(=O)c3nc(-c4c(F)cccc4Cl)sc3N)cnn2C)CC[C@H]1N [Example 280, 5-amino-N-(5-((2S,5R,6R)-5-amino-6-methoxyoxepan-2-yl)-1-methyl-1H-pyrazol-4-yl)-2-(2-chloro-6-fluorophenyl)thiazole-4-carboxamide] | 14 pM
9 | CO[C@@H]1C[C@@H](c2c(NC(=O)c3nc(-c4c(F)cccc4F)sc3N)cnn2C)OCC[C@H]1N [Example 136, 5-amino-N-(5-((2S,4R,5R)-5-amino-4-methoxyoxepan-2-yl)-1-methyl-1H-pyrazol-4-yl)-2-(2,6-difluorophenyl)thiazole-4-carboxamide] | 57 pM
10 | Cn1ncc(NC(=O)c2nc(-c3c(F)cccc3F)sc2N)c1C1=CCOCC1 [Example 101, 5-amino-2-(2,6-difluorophenyl)-N-[5-(3,6-dihydro-2H-pyran-4-yl)-1-methyl-pyrazol-4-yl]thiazole-4-carboxamide] | 485 pM
11 | Cn1ncc(NC(=O)c2nc(-c3c(F)cccc3F)sc2N)c1[C@H]1C[C@@H](N)CCO1 (stereo in doubt) [Example 158, 5-Amino-N-[5-[4-aminotetrahydropyran-2-yl]-1-methyl-pyrazol-4-yl]-2-(2,6-difluorophenyl)thiazole-4-carboxamide] | 32 pM
12 | Cn1ncc(NC(=O)c2ccc(F)c(-c3c(F)cc(C4(F)CCOCC4)cc3F)n2)c1[C@@H]1CC[C@@H](N)[C@H](F)CO1 [Example 206, N-(5-((2S,5R,6S)-5-amino-6-fluorooxepan-2-yl)-1-methyl-1H-pyrazol-4-yl)-6-(2,6-difluoro-4-(4-fluorotetrahydro-2H-pyran-4-yl)phenyl)-5-fluoropicolinamide] | 16 pM
13 | Cc1ccc(F)c(-c2nc(C(=O)Nc3cnn(C)c3[C@@H]3CC[C@@H](N)[C@H](F)CO3)c(N)s2)c1 [Example 292, 5-amino-N-(5-((2S,5R,6S)-5-amino-6-fluorooxepan-2-yl)-1-methyl-1H-pyrazol-4-yl)-2-(2-fluoro-5-methylphenyl)thiazole-4-carboxamide] | 24 pM
14 | Cn1ncc(NC(=O)c2nc(-c3c(F)cccc3F)sc2N)c1[C@@H]1C[C@H](O)CCO1 [Example 146, 5-amino-2-(2,6-difluorophenyl)-N-(5-((2S,4R)-4-hydroxytetrahydro-2H-pyran-2-yl)-1-methyl-1H-pyrazol-4-yl)thiazole-4-carboxamide] | 95 pM
15 | Cn1ncc(NC(=O)c2csc(-c3ccccc3C(F)(F)F)n2)c1[C@@H]1CC[C@@H](N)[C@H](F)CO1 [Example 311, N-(5-((2S,5R,6S)-5-amino-6-fluorooxepan-2-yl)-1-methyl-1H-pyrazol-4-yl)-2-(2-(trifluoromethyl)phenyl)thiazole-4-carboxamide] | 1650 pM
16 | Cn1ncc(NC(=O)c2ccc(F)c(-c3c(F)cc(C4(O)CCOCC4)cc3F)n2)c1[C@@H]1CC[C@@H](N)[C@H](F)CO1 [Example 196, N-(5-((2S,5R,6S)-5-amino-6-fluorooxepan-2-yl)-1-methyl-1H-pyrazol-4-yl)-6-(2,6-difluoro-4-(4-hydroxytetrahydro-2H-pyran-4-yl)phenyl)-5-fluoropicolinamide] | 6 pM
17 | Cc1c(-c2nc(C(=O)Nc3cnn(C)c3[C@@H]3CC[C@@H](N)[C@@H](F)CO3)c(N)s2)cnn1C [Example 255, 5-amino-N-(5-((2S,5R,6R)-5-amino-6-fluorooxepan-2-yl)-1-methyl-1H-pyrazol-4-yl)-2-(1,5-dimethyl-1H-pyrazol-4-yl)thiazole-4-carboxamide] | 7 pM
18 | Cn1ncc(NC(=O)c2nc(-c3c(F)ccc(F)c3F)sc2N)c1[C@@H]1CC[C@@H](N)[C@H](F)CO1 [Example 332, 5-amino-N-(5-((2S,5R,6S)-5-amino-6-fluorooxepan-2-yl)-1-methyl-1H-pyrazol-4-yl)-2-(2,3,6-trifluorophenyl)thiazole-4-carboxamide] | 3 pM
19 | Cn1ncc(NC(=O)c2csc(-c3cc(F)ccc3F)n2)c1[C@@H]1CC[C@@H](N)[C@H](F)CO1 [Example 301, N-(5-((2S,5R,6S)-5-amino-6-fluorooxepan-2-yl)-1-methyl-1H-pyrazol-4-yl)-2-(2,5-difluorophenyl)thiazole-4-carboxamide] | 58 pM
20 | Cn1ncc(NC(=O)c2nc(-c3c(F)cccc3F)sc2N)c1C1CCC(N)COC1 (stereo not drawn) [Example 144, 5-amino-N-[5-(6-aminooxepan-3-yl)-1-methyl-pyrazol-4-yl]-2-(2,6-difluorophenyl)thiazole-4-carboxamide] | 1450 pM
21 | COc1ccc(-c2nc(C(=O)Nc3cnn(C)c3[C@@H]3CC[C@@H](N)[C@H](F)CO3)ccc2F)c(F)c1 [Example 226, N-(5-((2S,5R,6S)-5-amino-6-fluorooxepan-2-yl)-1-methyl-1H-pyrazol-4-yl)-5-fluoro-6-(2-fluoro-4-methoxyphenyl)picolinamide] | 36 pM
22 | Cn1ncc(NC(=O)c2nc(-c3c(F)cccc3F)sc2N)c1C1=CCCCO1 [Example 102, 5-amino-2-(2,6-difluorophenyl)-N-[5-(3,4-dihydro-2H-pyran-6-yl)-1-methyl-pyrazol-4-yl]thiazole-4-carboxamide] | 408 pM
23 | CO[C@H]1CCC(c2c(NC(=O)c3nc(-c4c(F)cccc4F)sc3N)cnn2C)OC[C@@H]1N (stereo partly drawn) [Example 123, 5-amino-N-(5-((5S,6S)-6-amino-5-methoxyoxepan-2-yl)-1-methyl-1H-pyrazol-4-yl)-2-(2,6-difluorophenyl)thiazole-4-carboxamide] | 125 pM
24 | Cn1ncc(NC(=O)c2nc(-c3c(F)cccc3F)sc2N)c1C1CC(F)(F)CC(N)CO1 (stereo not drawn) [Example 122, 5-amino-N-[5-(6-amino-4,4-difluoro-oxepan-2-yl)-1-methyl-pyrazol-4-yl]-2-(2,6-difluorophenyl)thiazole-4-carboxamide] | 14 pM
25 | CC[C@@H]1C[C@H](N)CC[C@H](c2c(NC(=O)c3nc(-c4c(F)cccc4F)sc3N)cnn2C)O1 [Example 125, 5-amino-N-(5-((2R,7R)-5-amino-7-ethyloxepan-2-yl)-1-methyl-1H-pyrazol-4-yl)-2-(2,6-difluorophenyl)thiazole-4-carboxamide] | 3500 pM
26 | COCc1cc(F)c(-c2nc(C(=O)Nc3cnn(C)c3[C@@H]3CC[C@@H](N)[C@H](F)CO3)ccc2F)c(F)c1 [Example 199, N-(5-((2S,5R,6S)-5-amino-6-fluorooxepan-2-yl)-1-methyl-1H-pyrazol-4-yl)-6-(2,6-difluoro-4-(methoxymethyl)phenyl)-5-fluoropicolinamide] | 31 pM
27 | Cn1ncc(NC(=O)c2csc(-c3cc(F)cc(F)c3F)n2)c1[C@@H]1CC[C@@H](N)[C@H](F)CO1 [Example 236, N-(5-((2S,5R,6S)-5-amino-6-fluorooxepan-2-yl)-1-methyl-1H-pyrazol-4-yl)-2-(2,3,5-trifluorophenyl)thiazole-4-carboxamide] | 255 pM
28 | Cn1ncc(NC(=O)c2csc(-c3cccc(F)c3-c3cccc(F)c3Cl)n2)c1[C@@H]1CC[C@@H](N)[C@@H](F)CO1 [Example 251, N-(5-((2S,5R,6R)-5-amino-6-fluorooxepan-2-yl)-1-methyl-1H-pyrazol-4-yl)-2-(2′-chloro-3′,6-difluoro-[1,1′-biphenyl]-2-yl)thiazole-4-carboxamide] | 630000 pM
29 | Cn1ncc(NC(=O)c2csc(-c3cccc(Cl)c3F)n2)c1[C@@H]1CC[C@@H](N)[C@@H](F)CO1 [Example 248, N-(5-((2S,5R,6R)-5-amino-6-fluorooxepan-2-yl)-1-methyl-1H-pyrazol-4-yl)-2-(3-chloro-2-fluorophenyl)thiazole-4-carboxamide] | 64 pM
30 | Cn1ncc(NC(=O)c2nc(-c3c(F)cccc3F)sc2N)c1[C@H]1CC[C@H](F)[C@@H](N)CO1 [Example 153, 5-Amino-N-[5-[(2R,5S,6S)-6-amino-5-fluoro-oxepan-2-yl]-1-methyl-pyrazol-4-yl]-2-(2,6-difluorophenyl)thiazole-4-carboxamide] | 114 pM
